Results: paper PMC3969243, “A PIP5 Kinase Essential for Efficient Chemotactic Signaling” (Current Biology, 2014)

Legend:
[1] = target: T1, PikI (Dictyostelium discoideum, UniProt Q55GN6, T262E); conditions: product PI(4,5)P2; phosphomimetic
T1 construct: gene DDB_G0267588

[2] = target: T2, PikI (Dictyostelium discoideum, UniProt Q55GN6); conditions: product PI(4,5)P2
T2 construct: gene DDB_G0267588

[3] = target: T3, PikI (Dictyostelium discoideum, UniProt Q55GN6, T262A); conditions: product PI(4,5)P2
T3 construct: gene DDB_G0267588
T3 sequence (Q55GN6 whole entry T262A): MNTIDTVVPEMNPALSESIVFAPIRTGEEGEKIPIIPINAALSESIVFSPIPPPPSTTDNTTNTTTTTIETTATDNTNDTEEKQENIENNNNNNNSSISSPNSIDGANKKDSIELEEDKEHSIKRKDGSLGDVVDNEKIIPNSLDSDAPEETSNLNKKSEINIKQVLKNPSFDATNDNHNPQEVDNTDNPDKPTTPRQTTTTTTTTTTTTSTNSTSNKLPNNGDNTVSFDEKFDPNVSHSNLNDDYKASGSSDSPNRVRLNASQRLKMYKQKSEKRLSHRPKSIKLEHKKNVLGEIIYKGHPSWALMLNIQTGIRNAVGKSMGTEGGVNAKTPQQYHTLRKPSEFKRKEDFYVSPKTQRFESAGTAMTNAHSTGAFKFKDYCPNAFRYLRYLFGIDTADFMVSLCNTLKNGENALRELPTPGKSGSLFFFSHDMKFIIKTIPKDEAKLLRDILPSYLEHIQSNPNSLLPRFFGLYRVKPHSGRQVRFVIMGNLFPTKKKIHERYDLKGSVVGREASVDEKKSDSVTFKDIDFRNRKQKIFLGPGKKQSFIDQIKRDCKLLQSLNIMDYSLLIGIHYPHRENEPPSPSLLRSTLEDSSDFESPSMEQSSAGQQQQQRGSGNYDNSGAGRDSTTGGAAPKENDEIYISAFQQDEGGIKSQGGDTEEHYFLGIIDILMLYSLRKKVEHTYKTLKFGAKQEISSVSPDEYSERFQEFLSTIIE

T1 sequence (Q55GN6 whole entry T262E): as the sequence (Q55GN6 whole entry T262A) above, with A262E counted along it
T2 sequence (Q55GN6 whole entry): as the sequence (Q55GN6 whole entry T262A) above, with A262T counted along it

PI(4)P
Km [1]: 6.39 ± 3.69 µM
Km [2]: 5.74 ± 3.18 µM
Km [3]: 4.6 ± 2.87 µM
